Experimental data: patent US20160120863A1, “SLC2A TRANSPORTER INHIBITORS” (IOMET PHARMA LTD., priority 2013, published 2016)

Experiments:
human GLUT1 = molecular target: T1, human GLUT1 (Homo sapiens, UniProt P11166); test: [3H]-deoxy-D-glucose uptake assay, GLUT1; assay type: cell-based; details: [3H]-deoxy-D-glucose uptake in HEK293 cells stably expressing human GLUT1
T1 construct: expressed in transfected cells
T1 sequence (P11166 1-492): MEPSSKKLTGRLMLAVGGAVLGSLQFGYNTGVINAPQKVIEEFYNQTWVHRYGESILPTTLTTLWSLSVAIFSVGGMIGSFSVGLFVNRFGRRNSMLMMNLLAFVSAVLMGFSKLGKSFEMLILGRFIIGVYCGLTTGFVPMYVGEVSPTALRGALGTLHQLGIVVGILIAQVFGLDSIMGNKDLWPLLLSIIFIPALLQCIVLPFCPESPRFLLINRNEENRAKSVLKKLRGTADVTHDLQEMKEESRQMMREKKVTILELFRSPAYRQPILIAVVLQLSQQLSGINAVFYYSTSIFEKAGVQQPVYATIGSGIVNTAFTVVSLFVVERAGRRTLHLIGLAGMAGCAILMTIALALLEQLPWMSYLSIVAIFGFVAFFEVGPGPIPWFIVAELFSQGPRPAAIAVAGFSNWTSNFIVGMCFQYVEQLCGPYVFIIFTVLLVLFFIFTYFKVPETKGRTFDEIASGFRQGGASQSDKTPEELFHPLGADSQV
Outline: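 HEK293 cells stably overexpressing human GLUT1 or GLUT2, seeded at 60,000 per well, treated with compounds in glucose-free uptake buffer for 30 min at 37 °C. [3H]-deoxy-D-glucose uptake quantified by scintillation counting after ice-cold PBS washes; IC50 determined.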

human GLUT2 = molecular target: T2, human GLUT2 (Homo sapiens, UniProt P11168); test: [3H]-deoxy-D-glucose uptake assay, GLUT2; assay type: cell-based; details: [3H]-deoxy-D-glucose uptake in HEK293 cells stably expressing human GLUT2
T2 construct: expressed in transfected cells
T2 sequence (P11168 1-524): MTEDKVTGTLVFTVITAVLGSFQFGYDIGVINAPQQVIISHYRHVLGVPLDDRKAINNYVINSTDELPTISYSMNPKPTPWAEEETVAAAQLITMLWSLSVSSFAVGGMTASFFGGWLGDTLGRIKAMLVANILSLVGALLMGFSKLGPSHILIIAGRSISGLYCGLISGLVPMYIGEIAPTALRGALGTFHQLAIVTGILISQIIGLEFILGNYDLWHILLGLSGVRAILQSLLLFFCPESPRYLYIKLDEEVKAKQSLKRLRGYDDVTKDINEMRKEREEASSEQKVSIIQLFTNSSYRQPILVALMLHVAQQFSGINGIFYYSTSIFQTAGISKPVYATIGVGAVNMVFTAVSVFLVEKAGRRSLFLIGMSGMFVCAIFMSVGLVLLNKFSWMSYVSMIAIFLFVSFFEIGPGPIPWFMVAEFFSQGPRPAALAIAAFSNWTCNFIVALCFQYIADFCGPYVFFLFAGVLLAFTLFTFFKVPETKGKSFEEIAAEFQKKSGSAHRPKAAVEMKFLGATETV
Protocol: HEK293 cells were engineered to stably express either human GLUT1, GLUT2, GLUt3 or GLUT4 by transfection with the pReceiver-Lv105 plasmid, containing either hGLUT1, hGLUT2, hGLUT3, or hGLUT4 gene constructs with lipofectamine 2000, hGLUT1- hGLUT2- hGLUT3- or hGLUT4-overexpressing polyclonal populations were isolated under purinomycin selective pressure (1 μg/ml) and maintained in Dulbecco's modified Eagle's medium supplemented with 1 μg/ml purinomycin+10% foetal bovine serum (FBS).
60,000 cells per well were seeded overnight into poly-D-lysine coasted 96-well plates. […] 90 μl of test compounds were added in glucose-free uptake buffer and cells were incubated at 37° C. for 30 min.
Cells were then washed twice with ice-cold PBS and 100 μl of Microscint-20 was added per well. Glucose uptake was quantified with a scintillation counter. The half maximal inhibitory concentration (IC50) (a measure of the effectiveness of the test compound in inhibiting glucose uptake) was determined.

Row | Compound | GLUT1 pIC50 (human GLUT1) | GLUT2 pIC50 (human GLUT2)
1 | CS(=O)(=O)Nc1ccc2nc(-c3ccc(Cl)cc3Cl)c(CN3CCOCC3)n2c1 [Compound 357] | +++ (pIC50 ≧ 6.00) | ++ (pIC50 5.00-5.99)
2 | CS(=O)(=O)N1CCN(Cc2c(-c3ccc(Cl)cc3Cl)nc3cnc(C4CC4)cn23)CC1 [Compound 330] | +++ (pIC50 ≧ 6.00) | ++ (pIC50 5.00-5.99)
3 | CC(=O)N1CCN(Cc2c(-c3ccc(Cl)cc3Cl)nc3ccc(N4CCCCS4(=O)=O)cn23)CC1 [Compound 354] | +++ (pIC50 ≧ 6.00) | +++ (pIC50 ≧ 6.00)
4 | Clc1ccc(-c2nc3ccc(-c4ccccn4)cn3c2CN2CCn3ncnc3C2)c(Cl)c1 [Compound 299] | +++ (pIC50 ≧ 6.00) | +++ (pIC50 ≧ 6.00)
5 | CN1CCN(Cc2c(-c3ccc(Cl)cc3)nc3ccc(-c4ccccc4C#N)cn23)CC1=O [Compound 247] | +++ (pIC50 ≧ 6.00) | +++ (pIC50 ≧ 6.00)
6 | CC(=O)N1CCN(Cc2c(-c3ccc(Cl)cc3)nc3cnc(-c4ccccc4C#N)cn23)CC1 [Compound 224] | +++ (pIC50 ≧ 6.00) | +++ (pIC50 ≧ 6.00)
7 | CC(=O)N1CCN(Cc2c(-c3ccc(Cl)cc3)nc3ccc(NS(=O)(=O)C(C)C)cn23)CC1 [Compound 317] | ++ (pIC50 5.00-5.99) | ++ (pIC50 5.00-5.99)
8 | COCC(=O)N1CCN(Cc2c(-c3ccc(Cl)cc3)nc3ccc(NS(C)(=O)=O)cn23)CC1 [Compound 260] | +++ (pIC50 ≧ 6.00) | –
9 | Cc1cn2c(CN3CCOCC3)c(-c3ccc(Cl)cc3)nc2cn1 [Compound 209] | +− (pIC50 < 4.00) | –
10 | COc1cccc(-c2nc3ccc(-c4ccccc4)cn3c2CN2CCN(C(=O)C3CCCC3)CC2)c1 [Compound 35] | +++ (pIC50 ≧ 6.00) | –
11 | O=C(c1cscn1)N1CCN(Cc2c(-c3ccc(Cl)cc3)nc3cnc(C4CC4)cn23)CC1 [Compound 267] | +++ (pIC50 ≧ 6.00) | –
12 | Clc1ccc(-c2nc3ccc(Oc4ccccc4)cn3c2CN2CCOCC2)cc1 [Compound 158] | + (pIC50 4.00-4.99) | –
13 | COCc1c(-c2ccc(Cl)cc2)nc2ccc(-c3ccccc3)cn12 [Compound 73] | + (pIC50 4.00-4.99) | –
14 | Clc1ccc(-c2nc3ccc(-c4ncon4)cn3c2CN2CCOCC2)cc1 [Compound 172] | ++ (pIC50 5.00-5.99) | –
15 | Clc1ccc(-c2nc3ccc(Cl)cn3c2CN2CCOCC2)cc1 [Compound 27] | ++ (pIC50 5.00-5.99) | –
16 | COc1cccc(-c2nc3ccc(-c4ccccc4)cn3c2CN2CCN(C(=O)c3ccccc3F)CC2)c1 [Compound 71] | +++ (pIC50 ≧ 6.00) | –
17 | CC(=O)N1CCN(Cc2c(-c3ccc(Cl)cc3)nc3ccc(-c4c(F)cccc4F)cn23)CC1 [Compound 226] | +++ (pIC50 ≧ 6.00) | –
18 | O=C(C1COC1)N1CCN(Cc2c(-c3ccc(Cl)cc3)nc3ccc(-c4ncon4)cn23)CC1 [Compound 285] | +++ (pIC50 ≧ 6.00) | –
19 | CC(=O)Nc1ccc2nc(-c3ccc(Cl)cc3)c(CN3CCOCC3)n2c1 [Compound 204] | +− (pIC50 < 4.00) | –
20 | O=C(c1cncs1)N1CCN(Cc2c(-c3ccc(Cl)cc3)nc3ccc(-c4ccccc4)cn23)CC1 [Compound 184] | +++ (pIC50 ≧ 6.00) | –
21 | CN1CCN(C(=O)c2c(-c3ccc(Cl)cc3)nc3ccc(-c4ccccc4)cn23)CC1 [Compound 283] | +− (pIC50 < 4.00) | –
22 | COc1cccc(-c2nc3ccc(-c4ccccc4)cn3c2CN2CCN(C(=O)C3CCC3)CC2)c1 [Compound 16] | ++ (pIC50 5.00-5.99) | –
23 | O=C(c1ccnnc1)N1CCN(Cc2c(-c3ccc(Cl)cc3)nc3cnc(C4CC4)cn23)CC1 [Compound 268] | +++ (pIC50 ≧ 6.00) | –
24 | CCOC(=O)CN1CCN(Cc2c(-c3ccc(Cl)cc3)nc3ccc(-c4ccccc4)cn23)CC1 [Compound 211] | +− (pIC50 < 4.00) | –

Now from value to compound:

Row | GLUT1 pIC50 (human GLUT1) | GLUT2 pIC50 (human GLUT2) | Compound
25 | +++ (pIC50 ≧ 6.00) | ++ (pIC50 5.00-5.99) | CC(=O)N1CCN(Cc2c(-c3ccc(Cl)cc3)nc3ccc(NS(C)(=O)=O)cn23)CC1 [Compound 259]
26 | +++ (pIC50 ≧ 6.00) | +++ (pIC50 ≧ 6.00) | Clc1ccc(-c2nc3cnc(C4CC4)cn3c2CN2CCn3ncnc3C2)cc1 [Compound 261]
27 | +++ (pIC50 ≧ 6.00) | ++ (pIC50 5.00-5.99) | CS(=O)(=O)Nc1ccc2nc(-c3ccc(Cl)cc3Cl)c(CN3CCCOCC3)n2c1 [Compound 362]
28 | +++ (pIC50 ≧ 6.00) | +++ (pIC50 ≧ 6.00) | CC(=O)N1CCN(Cc2c(-c3ccc(Cl)cc3)nc3ccc(N4CCCS4(=O)=O)cn23)CC1 [Compound 320]
29 | ++ (pIC50 5.00-5.99) | +− (pIC50 < 4.00) | COCCS(=O)(=O)Nc1ccc2nc(-c3ccc(Cl)cc3)c(CN3CCN(C(C)=O)CC3)n2c1 [Compound 315]
30 | +++ (pIC50 ≧ 6.00) | ++ (pIC50 5.00-5.99) | CC(=O)N1CCN(Cc2c(-c3ccc(Cl)cc3Cl)nc3cnc(N(C)S(C)(=O)=O)cn23)CC1 [Compound 347]
31 | +++ (pIC50 ≧ 6.00) | ++ (pIC50 5.00-5.99) | CC(=O)N1CCN(Cc2c(-c3ccc(Cl)cc3)nc3ccc(NS(=O)(=O)C4CC4)cn23)CC1 [Compound 318]
32 | + (pIC50 4.00-4.99) | – | CC1CN(Cc2c(-c3ccccc3)nc3ccccn23)CC(C)O1 (stereo not drawn) [Compound 29]
33 | + (pIC50 4.00-4.99) | – | CCN(CC)C(=O)c1ccc2nc(-c3ccc(Cl)cc3)c(CN3CCOCC3)n2c1 [Compound 117]
34 | +++ (pIC50 ≧ 6.00) | – | N#Cc1ccccc1-c1ccc2nc(-c3ccc(Cl)cc3)c(CN3CCN(C(=O)c4ccncc4)CC3)n2c1 [Compound 220]
35 | ++ (pIC50 5.00-5.99) | – | Clc1ccc(-c2nc3ccc(-c4ccccc4)cn3c2CN2CCOCC2)cc1Cl [Compound 206]
36 | +++ (pIC50 ≧ 6.00) | – | O=C(C1CCC1)N1CCN(Cc2c(-c3ccc(Cl)cc3)nc3ccc(-c4ccccc4Cl)cn23)CC1 [Compound 201]
37 | + (pIC50 4.00-4.99) | – | CCOC(=O)c1ccc2nc(-c3ccc(Cl)cc3)c(CN3CCOCC3)n2c1 [Compound 163]
38 | ++ (pIC50 5.00-5.99) | – | O=C(c1ccco1)N1CCN(Cc2c(-c3cccc([N+](=O)[O-])c3)nc3ccc(-c4ccccc4)cn23)CC1 [Compound 15]
39 | ++ (pIC50 5.00-5.99) | – | O=C(C1CCCC1)N1CCN(Cc2c(-c3cccc([N+](=O)[O-])c3)nc3ccc(-c4ccccc4)cn23)CC1 [Compound 66]
40 | +− (pIC50 < 4.00) | – | Cc1ccc2nc(-c3ccccc3)c(CN3CCSCC3)n2c1 [Compound 6]
